Data published in US20230141887A1, “CRYSTAL FORM OF DIAZASPIROPYRAN COMPOUND” (MEDSHINE DISCOVERY INC., priority 2020, published 2023).

Assays:
FLT3 = molecular target: T1, FLT3 (Homo sapiens, UniProt P36888); test: Assay of FLT3 inhibitory activity in vitro (Promega FLT3 Kinase Enzyme System, ADP-Glo); type: biochemical; settings: 50 μmol/L ATP, 30° C., 120 minutes
T1 construct: purchased Promega
Experimental: The assay was carried out in duplicate. […] After the reaction was completed, 5 μL of ADP-Glo reagent was added to each well. The system was further reacted at 30° C. for 40 minutes. After the reaction was completed, 10 μL of kinase detection reagent was added to each well and reacted at 30° C. for 30 minutes. The chemiluminescence was then read by the PerkinElmer Envision multi-label analyzer with an integration time of 0.5 seconds.
(§1) The original data was converted into an inhibition rate, and the IC50 value can be obtained by four-parameter curve fitting.

MV-4-11 cells = test: Assay of inhibiting proliferation of MV-4-11 in vitro (CellTiter-Glo, 3 days); type: cell-based, human; settings: MV-4-11 cell proliferation
Experimental: IMDM medium, fetal bovine serum, and penicillin/streptomycin antibiotics were purchased from Promega (Madison, Wis.). The MV-4-11 cell line was purchased from the Cell Bank of the Chinese Academy of Sciences. Envision Multi-Label Analyzer (PerkinElmer).
MV-4-11 cells were seeded in a white 96-well plate with 80 μL of cell suspension per well containing 10,000 MV-4-11 cells. The cell plate was cultured overnight in a carbon dioxide incubator.
The compounds to be tested were 5-fold serially diluted with a pipette to obtain eight concentrations, i.e., from 2 mmol/L to 26 nmol/L. The assay was carried out in duplicate. 78 μL of medium was added to the intermediate plate, and then 2 μL per well of the serially diluted compounds were transferred to the intermediate plate according to the corresponding position. After mixing, an amount of 20 μL per well was transferred to the cell plate. The cell plate was cultured in a carbon dioxide incubator for 3 days.
25 μL per well of Promega CellTiter-Glo reagent was added to the cell plate and incubated at room temperature for 10 minutes to stabilize the luminescence signal. A PerkinElmer Envision multi-label analyzer was used for reading.
as §1

[1] = In vivo pharmacokinetic assay in mice; parameters: species or system CD-1 male mice
Experimental: CD-1 male mice aged 7 to 10 weeks were selected. The doses for intravenous and oral administration were 1 mg/kg and 2.5 mg/kg, respectively. The mice were fasted for at least 12 hours before the administration, and resumed feeding 4 hours after the administration. The mice had free access to water throughout the assay period.
On the day of the assay, the animals in the intravenous group were administrated the corresponding compound through a single injection in the tail vein at an administration volume of 5 mL/kg; the oral group were administrated the corresponding compound through a single intragastric gavage at an administration volume of 10 mL/kg. The animals were weighed before administration, and the administration volume was calculated based on the body weight. The time for collecting samples was: 0.083 (the injection group), 0.25, 0.5, 1, 2, 4, 8, 24 h. About 30 μL of whole blood was collected from the saphenous vein at each time point to prepare plasma for concentration determination by high-performance liquid chromatography-tandem mass spectrometry (LC-MS/MS). All animals were euthanized by CO2 anesthesia after collecting the PK samples at the last time point. The plasma concentrations were processed by non-compartmental model of WinNonlin™ Version 6.3 (Pharsight, Mountain View, Calif.) pharmacokinetic software, and the pharmacokinetic parameters were calculated by the linear logarithm trapezoidal method.

[2] = system: human biphenotypic B bone marrow mononuclear leukemia cell MV4-11 subcutaneous xenograft tumor; test: Inhibition of MV4-11 subcutaneous xenograft tumor in vivo; parameters: species or system nude mice; settings: for % Inhibition rate on day 14 / Average tumor volume Day 14: Oral, Once a day
Experimental: In this assay, the anti-tumor effect of the compounds was evaluated using a nude mice model of subcutaneous xenograft tumor of human biphenotypic B bone marrow mononuclear leukemia cell MV4-11.
Human biphenotypic B bone marrow mononuclear leukemia cell MV4-11 was cultured in vitro in suspension with a RPMI1640 medium supplemented with 10% fetal bovine serum, 100 U/mL penicillin and 100 μg/mL streptomycin in a 5% CO2 cell incubator at 37° C. Routine passaging was performed twice a week. Cells in the logarithmic growth phase were collected, counted and then used for inoculation.
0.2 mL (1×10^7) of MV4-11 cells (plus matrigel, with a volume ratio of 1:1) were inoculated subcutaneously on the right back of each mouse. The grouping and dosing were started when the average tumor volume reached about 140-200 mm^3.
The diameter of the tumor was measured with vernier calipers twice a week. The formula for calculating the tumor volume is: V=0.5a×b^2, where a and b represent the long and short diameters of the tumor, respectively.

[3] = In vivo pharmacokinetic assay in dogs; parameters: species or system Male Beagle dogs; settings: 1 mg/kg
Experimental: Male Beagle dogs older than 6 months of age were selected. On the day of the assay, the animals were given the corresponding compound by single injection in the cephalic or saphenous vein in a volume of 1 mL/kg for the intravenous group; and by single gavage in a volume of 5 mL/kg for the oral group. The animals were weighed before administration and the dosing volume of the compound was calculated based on their body weight. About 0.5 mL of whole blood was collected from the cephalic or saphenous vein at each time point to prepare plasma for determination of concentrations by high performance liquid chromatography-tandem mass spectrometry (LC-MS/MS). Plasma concentrations were processed using non-compartment model of WinNonlin™ Version 6.3 or above (Pharsight, Mountain View, Calif.) pharmacokinetic software, and pharmacokinetic parameters were calculated using the linear log trapezoidal method.

[4] = Oral administration (2.5 mg/kg)

T1 sequence (P36888 27-993): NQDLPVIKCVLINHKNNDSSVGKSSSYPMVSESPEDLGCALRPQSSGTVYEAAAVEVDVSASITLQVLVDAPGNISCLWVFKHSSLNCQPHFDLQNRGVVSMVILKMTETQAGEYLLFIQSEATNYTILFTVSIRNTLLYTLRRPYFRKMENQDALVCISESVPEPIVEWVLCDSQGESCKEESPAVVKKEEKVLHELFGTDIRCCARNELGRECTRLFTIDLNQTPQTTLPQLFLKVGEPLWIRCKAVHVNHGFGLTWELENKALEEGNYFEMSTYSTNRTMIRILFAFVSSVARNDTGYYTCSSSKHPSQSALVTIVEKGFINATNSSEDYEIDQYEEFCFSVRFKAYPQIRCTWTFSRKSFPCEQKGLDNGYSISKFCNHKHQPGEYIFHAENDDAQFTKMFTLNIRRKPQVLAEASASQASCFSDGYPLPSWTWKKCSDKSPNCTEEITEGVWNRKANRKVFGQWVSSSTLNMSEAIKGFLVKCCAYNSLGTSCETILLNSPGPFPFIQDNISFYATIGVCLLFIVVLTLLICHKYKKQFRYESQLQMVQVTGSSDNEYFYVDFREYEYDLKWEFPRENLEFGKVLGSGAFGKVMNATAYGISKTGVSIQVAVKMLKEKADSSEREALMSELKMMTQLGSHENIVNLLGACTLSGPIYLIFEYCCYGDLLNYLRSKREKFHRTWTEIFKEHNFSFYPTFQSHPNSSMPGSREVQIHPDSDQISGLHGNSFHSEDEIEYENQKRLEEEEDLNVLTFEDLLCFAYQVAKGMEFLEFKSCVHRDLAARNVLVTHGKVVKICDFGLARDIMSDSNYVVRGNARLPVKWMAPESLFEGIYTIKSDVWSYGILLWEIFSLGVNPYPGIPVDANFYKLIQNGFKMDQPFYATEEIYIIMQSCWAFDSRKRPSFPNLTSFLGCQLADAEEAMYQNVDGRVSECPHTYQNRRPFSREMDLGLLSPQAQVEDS

For CCc1nc(C(N)=O)c(Nc2ccc(N3CCC4(CCN(C)CC4)CC3)c(C)c2)nc1NC1CCOCC1.O=C(O)C(F)(F)F, the IC50 (FLT3) was 0.42 nM, the IC50 (MV-4-11 cells) was 3.02 nM and the AUC0-last ([1]; Injection (1 mg/kg)) was 604 nm·h. For the same molecule, the Cl ([1]; Injection (1 mg/kg)) was 48.5 mL/min/kg, the T1/2 ([1]; Injection (1 mg/kg)) was 2.40 h and the Vdss ([1]; Injection (1 mg/kg)) was 8.63 L/kg. It also gave a Cmax [1, 4] of 60.5 nM, a F% [1, 4] of 37.3% and a T1/2 [1, 4] of 4.41 h. The Tmax [1, 4] was 4.00 h, the “% Inhibition rate on day 14” value ([2]; 1 mg/kg) was 66.1% and the “Average tumor volume Day 14” value ([2]; 1 mg/kg) was 375 mm^3. The “% Inhibition rate on day 14” value ([2]; 1.5 mg/kg) was 81.0%, the “Average tumor volume Day 14” value ([2]; 1.5 mg/kg) was 273 mm^3 and the “% Inhibition rate on day 14” value ([2]; 4.5 mg/kg) was 114.7%. The “Average tumor volume Day 14” value ([2]; 4.5 mg/kg) was 51 mm^3, the “Average tumor volume Day 0” value ([2]; Day 0, one value for all groups, before dosing) was 149 mm^3 and the AUC0-last ([3]; Injection) was 765 nm·h. It also gave a Cl ([3]; Injection) of 34.2 mL/min/kg, a T1/2 ([3]; Injection) of 9.83 h and a Vdss ([3]; Injection) of 28.9 L/kg. It also gave a Cmax ([3]; Oral) of 21.1 nM, a F% ([3]; Oral) of 41.6% and a Tmax ([3]; Oral) of 4.00 h.
